Legend:
[1] = biological target: T1, thioredoxin reductase (TrxR) (Homo sapiens, UniProt Q16881); conditions: read-out: Inhibitory activity against thioredoxin reductase (IC50) TrxR; cellular total protein, NADPH, DTNB, 405 nm
T1 sequence (Q16881 1-649): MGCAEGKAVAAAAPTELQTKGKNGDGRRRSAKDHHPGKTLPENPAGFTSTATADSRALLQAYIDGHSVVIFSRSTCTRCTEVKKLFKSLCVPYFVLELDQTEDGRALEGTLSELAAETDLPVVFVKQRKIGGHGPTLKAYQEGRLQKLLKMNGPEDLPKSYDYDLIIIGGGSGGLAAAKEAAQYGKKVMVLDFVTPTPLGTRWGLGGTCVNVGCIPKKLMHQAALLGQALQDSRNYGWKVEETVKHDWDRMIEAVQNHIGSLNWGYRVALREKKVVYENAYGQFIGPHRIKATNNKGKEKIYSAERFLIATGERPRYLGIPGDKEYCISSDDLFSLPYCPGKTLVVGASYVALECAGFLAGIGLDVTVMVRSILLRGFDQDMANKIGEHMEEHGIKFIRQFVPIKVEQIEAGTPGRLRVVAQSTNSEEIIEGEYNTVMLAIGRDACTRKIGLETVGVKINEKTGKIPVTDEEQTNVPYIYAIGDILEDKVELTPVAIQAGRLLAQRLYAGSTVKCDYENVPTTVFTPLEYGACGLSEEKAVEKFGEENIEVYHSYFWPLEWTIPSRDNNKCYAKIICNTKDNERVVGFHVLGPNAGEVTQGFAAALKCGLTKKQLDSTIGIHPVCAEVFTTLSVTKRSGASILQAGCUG
Method: The cellular total protein (i.e. thioredoxin reductase) was extracted and the concentration was determined. 30 μg of protein sample was added to a 96-well plate (3 replicate wells per concentration), and the volume was made up to 80 μL with 0.1 M sodium phosphate buffer. The protein samples were incubated in an oven at 37° C. for 30 min.
The absorbance was immediately measured at 405 nm using a microplate reader (FlexStation 3, Molecular Devices). Shaking was performed for 10 s before the first reading, and determination was performed once every 15 s, 30 times in total. The maximum reaction rate was taken as an enzymatic activity index. The experiment was independently repeated three times.

human glioma cells (U87) = test: In-vitro growth inhibition, MTT method, U87; type: cell-based; conditions: Glioma cell, 48 h
Method: (§1) The in-vitro growth inhibitory activity of compounds 1 to 8 of the present disclosure against human glioma cells (U87 and LN229), human hepatoma cells (SMMC-7721) and human pancreatic carcinoma cells (Panc1) was studied adopting the MTT method.
U87, LN229, SMMC-7721 and Panc1 cells growing at log phase were separately inoculated into a 96-well plate at a density of 5×10^4 cells/mL, 180 μL/well. […] After 48 h of action, a 5 mg/mL MTT solution (20 μL/well) was added. After the cells were incubated in a CO2 incubator for 3 to 4 h, the supernatant was carefully discarded. After the residual liquid was air-dried, acidified isopropanol (50 μL of concentrated hydrochloric acid dissolved in 500 mL of isopropanol) was added at […], and the plate was shaken on a shaker for 30 min. After the crystals were completely dissolved, absorbance OD values were measured by a microplate reader at 570 nm.
(§2) Cell viability %=(drug-treated cell OD−blank group OD)/(control cell OD−blank group OD)×100
(§3) Cell killing rate %=1−cell viability %

[2] = test system: human glioma cells (LN229); test: In-vitro growth inhibition, MTT method, LN229; type: cell-based; conditions: LN-229, 48 h
Method: as §1
(§4) U87, LN229, SMMC-7721 and Panc1 cells growing at log phase were separately inoculated into a 96-well plate at a density of 5×10^4 cells/mL, 180 μL/well. After the cells were attached to the wall, 20 μL of a drug liquid was added to each well, so that the final concentrations of the drug were 0 μM, 5 μM, 10 μM, 20 μM and 50 μM. After 48 h of action, a 5 mg/mL MTT solution (20 μL/well) was added. After the cells were incubated in a CO2 incubator for 3 to 4 h, the supernatant was carefully discarded. After the residual liquid was air-dried, acidified isopropanol (50 μL of concentrated hydrochloric acid dissolved in 500 mL of isopropanol) was added at […], and the plate was shaken on a shaker for 30 min. After the crystals were completely dissolved, absorbance OD values were measured by a microplate reader at 570 nm.
as §2, §3

[3] = test system: human hepatoma cells (SMMC-7721); test: In-vitro growth inhibition, MTT method, SMMC-7721; type: cell-based; conditions: 48 h
Method: as §1, §4, §2, §3

[4] = test system: human pancreatic carcinoma cells (Panc1); test: In-vitro growth inhibition, MTT method, Panc1; type: cell-based; conditions: PANC-1, 48 h
Method: as §1, §4, §2, §3

human glioma cell U87 [5] = test: In-vivo antitumor activity, U87 tumor-bearing nude mice, i.g. dosing; parameters: species or system Balb/c nude mice; conditions: q.d., end of the experiment; for Tumor volume: 11 days
Excerpt: The tumor emergence rate was 100%.
The solvent was freshly prepared when needed each day.

human glioma cell U87 [6] = test: Tumor volume inhibition rate, i.v. dosing; type: in vivo, Balb/c nude mice; conditions: Mus musculus, iv, TMZ 10 mg·kg^−1, i.v.
Method: In addition, low-dosage 0409 (20 mg·kg^−1, i.v.) and TMZ (10 mg·kg^−1, i.v.) were synchronously used for an assay to determine the volume tumor inhibition rate.

human glioma cell U87 [7] = test: Pharmacodynamic study in human glioma cell U87 subcutaneous model; type: in vivo, Balb/c nude mice; conditions: compounds 20 mg/Kg, q.d.×14 days
Excerpt: The route of administration was intragastric administration ([…]., q.d.×14 days).

[8] = test system: U251MG human glioma cells; test: In-vitro anti-cancer activity screening, SRB method, U251MG; type: cell-based; conditions: U-251
Method: (§5) Referring to the method of example 9, two tumor cell lines, U251MG and U251TR human glioma cells, were selected, and temozolomide and the compounds of the present disclosure were subjected to in-vitro anti-cancer activity screening using the SRB method.

[9] = test system: U251TR human glioma cells; test: In-vitro anti-cancer activity screening, SRB method, U251TR; type: cell-based; conditions: Glioma cell, drug-resistant strain
Method: as §5

[10] = 0409 high-dose group 90 mg·kg^−1, i.g.
[11] = 0409 low-dose group 45 mg·kg^−1, i.g.
[12] = 240 h, Day 10, 20 mg·kg^−1, i.v.
[13] = 264 h, Day 11, 20 mg·kg^−1, i.v.
[14] = 288 h, Day 12, 20 mg·kg^−1, i.v.
[15] = 312 h, Day 13, 20 mg·kg^−1, i.v.
[16] = 336 h, Day 14, 20 mg·kg^−1, i.v.
[17] = 360 h, Day 15, 20 mg·kg^−1, i.v.
[18] = 384 h, Day 16, 20 mg·kg^−1, i.v.
[19] = 408 h, Day 17, 20 mg·kg^−1, i.v.
[20] = 432 h, Day 18, 20 mg·kg^−1, i.v.

| Structure (SMILES) | IC50 (human glioma cells (U87)) [µM] | IC50 [2] [µM] | IC50 [3] [µM] | IC50 [4] [µM] | inhibition in vivo at 20 mg/kg (human glioma cell U87 [6]; [12]) [%] | inhibition in vivo at 20 mg/kg (human glioma cell U87 [6]; [13]) [%] | inhibition in vivo at 20 mg/kg (human glioma cell U87 [6]; [14]) [%] | inhibition in vivo at 20 mg/kg (human glioma cell U87 [6]; [15]) [%] | inhibition in vivo at 20 mg/kg (human glioma cell U87 [6]; [16]) [%] | inhibition in vivo at 20 mg/kg (human glioma cell U87 [6]; [17]) [%] | inhibition in vivo at 20 mg/kg (human glioma cell U87 [6]; [18]) [%] | inhibition in vivo at 20 mg/kg (human glioma cell U87 [6]; [19]) [%] | inhibition in vivo at 20 mg/kg (human glioma cell U87 [6]; [20]) [%] | Tumor inhibition rate (human glioma cell U87 [7]; Day 1) [%] | Tumor inhibition rate (human glioma cell U87 [7]; Day 4) [%] | Tumor inhibition rate (human glioma cell U87 [7]; Day 7) [%] | Tumor inhibition rate (human glioma cell U87 [7]; Day 10) [%] | Tumor inhibition rate (human glioma cell U87 [7]; Day 14 (end of the experiment)) [%] | IC50 [8] [µM] | IC50 [9] [µM] | also measured |
| --- | --- | --- | --- | --- | --- | --- | --- | --- | --- | --- | --- | --- | --- | --- | --- | --- | --- | --- | --- | --- | --- |
| O=c1c2ccccc2[se]n1CCCCn1[se]c2ccccc2c1=O [BS, Butaselen] | – | – | – | – | – | – | – | – | – | – | – | – | – | – | – | – | – | – | – | – | IC50 [1]: 1.14 ± 0.17 µM |
| Cn1nnc2c(C(=O)NCCn3[se]c4ccccc4c3=O)ncn2c1=O [Compound 1, 3,4-dihydro-3-methyl-4-oxo-N-(3(2H)-oxo-1,2-benzisoselenazol-2-yl)-ethyl-imidazo[5,1-d]-1,2,3,5-tetrazine-8-carboxamide] | 21 ± 3.07 | 14.4 ± 2.24 | 12 ± 1.57 | 17.8 ± 3.44 | 74.8 | 73.8 | 69.8 | 79.8 | 81.4 | 80.5 | 78.5 | 82.3 | 81.7 | 5.86 | 58.78 | 78.57 | 74.77 | 81.42 | 48.9 ± 9.33 | 51.9 ± 21.9 | Tumor volume (human glioma cell U87 [5]; [10]): 90.00±32.64 mm^3; Tumor proliferation inhibition rate (human glioma cell U87 [5]; [10]): 83.97%; Tumor weight (human glioma cell U87 [5]; [10]): 0.12 ± 0.04 g; Tumor volume (human glioma cell U87 [5]; [11]): 96.70±24.08 mm^3; Tumor proliferation inhibition rate (human glioma cell U87 [5]; [11]): 82.78%; Tumor weight (human glioma cell U87 [5]; [11]): 0.20 ± 0.10 g |
| Cc1ccc2[se]n(CCNC(=O)c3ncn4c(=O)n(C)nnc34)c(=O)c2c1 [Compound 6, 3,4-dihydro-3-methyl-4-oxo-N-(3(2H)-oxo-5-methyl-1,2-benzisoselenazol-2-yl)-ethyl-imidazo[5,1-d]-1,2,3,5-tetrazine-8-carboxamide] | 19.2 ± 3.77 | 11.3 ± 0.82 | 11.2 ± 2.11 | 29.3 ± 0.42 | 91.5 | 91.6 | 90.1 | 88.5 | 88 | 88.9 | 87.5 | 88.5 | 88.3 | 9.05 | 68.76 | 84.09 | 86.55 | 92.48 | 1.26 ± 0.83 | 29.4 ± 3.21 | – |
| Cn1nnc2c(C(=O)NCCn3[se]c4cc(F)ccc4c3=O)ncn2c1=O [Compound 3, 3,4-dihydro-3-methyl-4-oxo-N-(3(2H)-oxo-6-fluoro-1,2-benzisoselenazol-2-yl)-ethyl-imidazo[5,1-d]-1,2,3,5-tetrazine-8-carboxamide] | 20.4 ± 7.19 | 19 ± 1.3 | 25.4 ± 7.19 | 7 ± 8.3 | 57.9 | 67.1 | 68.4 | 58.8 | 72.3 | 72.7 | 78.6 | 74.8 | 73.8 | −9.91 | 47.90 | 87.76 | 91.47 | 88.01 | 15.4 ± 1.25 | 35.5 ± 4.97 | – |
| Cc1ccc2c(=O)n(CCNC(=O)c3ncn4c(=O)n(C)nnc34)[se]c2c1 [Compound 8, 3,4-dihydro-3-methyl-4-oxo-N-(3(2H)-oxo-6-methyl-1,2-benzisoselenazol-2-yl)-ethyl-imidazo[5,1-d]-1,2,3,5-tetrazine-8-carboxamide] | 20.4 ± 3.13 | 13.7 ± 2.52 | 3.35 ± 2.13 | 8.65 ± 3.52 | 86.5 | 86.2 | 87.2 | 88.2 | 92.5 | 87.7 | 87 | 88.5 | 89.1 | −0.20 | 58.48 | 83.03 | 80.92 | 82.68 | 9.13 ± 1.52 | 16.2 ± 1.67 | – |

From US20230167120A1, “ARYL-FUSED ISOSELENAZOLE COMPOUND CONTAINING TETRAZINE SUBSTITUENT, SYNTHESIS METHOD THEREFOR, AND USE THEREOF” (KEAISE MEDICINE WUHAN CORP., priority 2020, published 2023)
